Source: publication PMC5409245, “An albumin-based tumor-targeted oxaliplatin prodrug with distinctly improved anticancer activity in vivo” (Chemical Science, 2016)

Key:
[1] = biological target: T1, human serum albumin (HSA) (Homo sapiens, UniProt P02768); assay: Albumin-binding rate by RP-HPLC (decrease of unbound drug peak area); details: 1 eq. of HSA used
T1 construct: purchased Sigma Aldrich
Procedure: Next, the binding of the maleimide-functionalized complexes to the thiol group of human serum albumin (HSA) was investigated. Therefore, compounds 7–8 and 11–12 were incubated with HSA and the decrease of the peak area of the unbound drug was monitored (Fig. 2B, Table S19 ^†).
(§1) RP-HPLC stability and binding studies
(§2) To determine the stability, especially of the maleimide-function, 0.5 mM solutions of the complexes were prepared in triple distilled water and measured repeatedly over several hours. For determination of the binding rate towards human serum albumin (HSA), freshly prepared 1 mM aqueous solutions of a compound and HSA were mixed 1:1 and also measured repeatedly over several hours. All studies were carried out using a reversed-phase Waters XBridge C18 column on a Dionex Summit System. Milli-Q water, containing 0.1% formic acid, and methanol were used as eluents and a standard gradient from 5–95% methanol in 20 minutes was chosen. The autosampler, where the samples were incubated, was temperature controlled at 20°C and the column at 25°C. The loss of the complexes was monitored via UV-VIS detector at 225 nm and evaluated by the decrease of the compound […]
(§3) For sample preparation compounds 7– 14 were incubated separately in FCS. […] The samples were then stored in the autosampler at 37°C for 21 h and analyzed

[2] = biological target: T2, albumin fraction of fetal calf serum (Bos taurus, UniProt P02769); assay: Binding studies in fetal calf serum by SEC-ICP-MS; format: in vitro ADME; details: 37 °C
T2 construct: from tissue; host or cells: fetal calf serum (whole serum)
T2 sequence (P02769 25-607): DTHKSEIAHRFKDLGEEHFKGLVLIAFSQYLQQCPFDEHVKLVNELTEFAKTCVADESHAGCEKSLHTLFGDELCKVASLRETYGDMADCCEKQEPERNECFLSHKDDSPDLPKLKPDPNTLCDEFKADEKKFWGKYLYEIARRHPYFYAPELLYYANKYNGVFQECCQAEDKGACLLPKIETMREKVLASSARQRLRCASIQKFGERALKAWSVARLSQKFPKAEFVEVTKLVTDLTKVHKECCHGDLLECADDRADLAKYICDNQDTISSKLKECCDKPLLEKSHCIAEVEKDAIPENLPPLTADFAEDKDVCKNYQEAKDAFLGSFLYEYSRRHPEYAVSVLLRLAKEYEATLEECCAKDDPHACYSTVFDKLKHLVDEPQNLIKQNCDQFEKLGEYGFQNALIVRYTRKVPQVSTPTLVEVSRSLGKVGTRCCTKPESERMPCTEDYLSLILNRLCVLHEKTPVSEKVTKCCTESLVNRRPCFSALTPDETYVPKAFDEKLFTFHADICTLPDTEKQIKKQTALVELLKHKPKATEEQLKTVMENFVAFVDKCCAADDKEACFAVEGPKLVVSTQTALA
Procedure: To ascertain the actual binding target, the binding rate and the stability of the formed species under biological conditions, the compounds were incubated with fetal calf serum at 37 °C and sulfur- and platinum-containing (macro)molecules were measured with size exclusion chromatography inductively coupled plasma mass spectrometry (SEC-ICP-MS) over 21 h. Already at the first scan (∼5–10 min after incubation) ∼50% of the maleimide-containing compounds 7–8 and 11–12 were bound to the albumin fraction at 7.6 min (see Table S11 ^† for the corresponding size ladder). At the next time point after 140 min, in all cases, >80% of the drug was bound to albumin. […] Thus, the fast as well as specific binding to serum albumin was verified. […]
To determine the stability, especially of the maleimide-function, 0.5 mM solutions of the complexes were prepared in triple distilled water and measured repeatedly over several hours. For determination of the binding rate towards human serum albumin (HSA), freshly prepared 1 mM aqueous solutions of a compound and HSA were mixed 1:1 and also measured repeatedly over several hours. […] The loss of the complexes was monitored via UV-VIS detector at 225 nm and evaluated by the decrease of the compound […]
For sample preparation compounds 7– 14 were incubated separately in FCS. […] The samples were then stored in the autosampler at 37°C for 21 h and analyzed […]

[3] = Stability in aqueous solution by analytical RP-HPLC; format: physicochemical
Procedure: The stability of the compounds in aqueous solution was monitored over several hours using analytical RP-HPLC. […] Thus, the hydrolysis can be clearly attributed to the maleimide moiety.
as §1, §2, §3

[4] = Reduction with ascorbic acid monitored by RP-HPLC and 1H-NMR; format: physicochemical; details: 1 mM complex, 10 equivalents ascorbic acid, phosphate buffer pH = 7.4
Procedure: As one explanation of the observed differences between the compounds might be altered reducibility, we investigated the reduction rate in the presence of ascorbic acid in phosphate-buffered solution at pH = 7.4 using NMR spectroscopy and HPLC measurements. To reduce the number of additional signals from hydrolyzed maleimide species in the spectra, only the succinimide-functionalized compounds 9–10 and 13–14 were evaluated in these experiments (Fig. 7 and S6 ^†). For both NMR and HPLC measurements, the same complex concentrations (1 mM) and 10 equivalents ascorbic acid were used. […] Overall, there is a strong correlation between the reduction data and the in vivo activity. As such, the fast reduction of the cisplatin derivatives correlates with the low in vivo activity of 8 and relatively low plasma levels after 24 h. […]
1 mM solutions of the succinimide derivatives 9– 10 and 13–14 in 100 mM phosphate buffer (pH=7.4) were freshly prepared, mixed with 10 mM solutions of ascorbic acid in 100 mM phosphate buffer (pH=7.4) and measured by RP-HPLC every hour for up to 24 h. […] The reduction of the compound was monitored via UV-VIS detector at 225 nm and evaluated by the decrease of the initial compound peak area. […]

CT-26 tumors = assay: Histological evaluation (H/E) of apoptotic and mitotic cell fractions in CT-26 tumors; format: in vivo, BALB/c mice; details: tumors of male mice, day 12, H/E stain, counting
Procedure: In order to better understand the observed differences in the activity of our compound panel, in a second experiment male CT-26-bearing animals were sacrificed on day 12 (24 h after the last treatment) and paraffin-embedded tumors were evaluated by H/E stain. […] In addition, as depicted in Fig. 5, the tumors of mice treated with 12 were clearly smaller than the ones of the other treatment groups. […] Furthermore, the histological evaluation of tumor material was only possible for 3 animals because the fourth mouse already experienced a complete remission at time of section (which means that the best responding animal was not available for evaluation). […]
mice was performed only with the endpoint overall survival. For cisplatin and 8, the […]
was performed. […]
experimental group contained four animals). Tumor volumes were calculated as described in the experimental part. […]
Figure S5: Apoptosis and mitosis levels in tumors after the treatment with compound 8, 11 and 12 in comparison to cis- and oxaliplatin: CT-26 cells were injected subcutaneously into the right flank of male BALB/c mice. […] The fractions of apoptotic and mitotic cells were evaluated by counting (4 pictures per sample, at least 300 cells per picture were counted). […]
The statistical significance was calculated by One-Way Anova and is indicated with asterisks (* P < 0.05; ** P < 0.01; *** P < 0.001).

[5] = test system: subcutaneous CT-26 tumors
Procedure: Mice were treated twice a week (Monday and Thursday) i.v. with concentrations equimolar to 9 mg kg^–1 oxaliplatin (each experimental group contained four animals). […] The experiment was performed twice with two different endpoints: overall survival vs. tissue collection 12 days after the first treatment. […] Data are means ± SEM.
CT-26 cells (5x105 in serum-free medium) were injected subcutaneously into the right flank
of Balb/c mice (gender is indicated in the respective figure). Animals were treated with the
indicated oxaliplatin-releasing drugs at concentrations equimolar to 9 mg/kg oxaliplatin (i.v.;
12 was dissolved in 0.9% NaCl solution, 11 in 10% propylene glycol/0.9% NaCl, and
oxaliplatin in 5% glucose solution according to the clinical protocol) twice a week (Mondays
and Thursdays). In case of cisplatin-releasing prodrugs, a dose equimolar to 3 mg/kg cisplatin
was applied twice a week. For all experiments four animals per treatment group were used.
Animals were controlled for distress development every day and tumor size was assessed
regularly by caliper measurement. Tumor volume was calculated using the formula: (length ×
width2). The experiments with oxaliplatin, 11 and 12 in male mice were performed twice
with two different endpoints: 1) overall survival and 2) collection of organ and tumor
In the second experiments, tumors were
formalin-fixed and paraffin-embedded.
Results were analyzed and illustrated and statistical analyses performed (as indicated) with
GraphPad Prism (GraphPad Software version 5,San Diego, CA).

[6] = Serum platinum levels 24 h after single treatment (SEC-ICP-MS and FI-ICP-MS); format: in vivo, BALB/c mice
Source text: It is well accepted that albumin targeting distinctly impacts on the plasma half-life time as well as tissue distribution.[36] Especially, the enhanced accumulation due to the EPR effect makes this form of tumor-targeting very interesting for the development of novel cancer therapeutics.[13] As our novel compounds have a double prodrug nature (albumin-binding and the need of activation by reduction), we were interested in the drug tissue distribution after treatment. To this end, male CT-26-bearing BALB/c mice were treated once with our compounds followed by sample collection 24 h later. […] In accordance to many other non-targeted drugs,[37]–[40] for both platinum(II) drugs the intratumoral drug levels were distinctly lower than in the liver and kidney (which usually have very high drug levels due to their important function in metabolism and excretion).
Mice were treated once i.v. with 9 mg kg^–1 oxaliplatin and the equimolar concentrations in the case of 11 and 12 as well as 3 mg kg^–1 cisplatin and an equimolar dose in the case of 8. After 24 h, animals were anesthetized, sacrificed by heart puncture and tumor, liver, kidney tissue as well as serum were collected. Each experimental group contained four animals. (A) Organ platinum-distribution measured by ICP-MS. Data are expressed as mean ± standard deviation. (B) Platinum-SEC-ICP-MS measurements of serum samples (C) serum platinum levels measured by FI-ICP-MS. Data are expressed as mean ± standard deviation.
Table S10 : Column recovery.
Drug Conc. (µM) SD Column SD
A protein/amino acid mix was prepared to assess the separation performance of the applied SEC-HPLC setup. The mixture contained HSA, myoglobin, GSSG, and methionine. It has to be mentioned that HSA is forming dimers over time. However, the separation of the monomer and the dimer of HSA cannot be resolved with this chromatographic column.
Table S11 : Resulting size ladder.
SEC-ICP-MS measurements of in vivo serum samples
The ICP-QMS iCAP Thermo Scientific (Bremen, Germany) was used. Oxygen (purity 4.5, Linde Gas GmbH, Vienna, Austria) was used as reaction gas. The ICP-MS operation parameters are […]
Table S12 : ICP-MS operation parameters.
Nebulizer gas flow: 1.01 L/min
Aux. gas flow: 0.80 L/min
Plasma gas flow: 14 L/min
Reaction gas (oxygen) flow: 0.370 mL/min
As HPLC system a Thermo Scientific Transcend HPLC system (San Jose, CA, USA) was coupled to the ICP-QMS iCAP Thermo Scientific. Qtegra Intelligent Scientific Data Solution (version 2.4.1800.33) was employed for the data treatment. HPLC chromatographic conditions are […]
Table S13 : Chromatographic conditions.
HPLC column: BioBasic SEC-60 A, 4.6x250 mm, 5µm.
Eluent: 50 mM CH3COONH4, pH = 6.0.
Column Temperature: Room temperature
Autosampler Temperature: 37°C […]

[7] = female BALB/c mice, 9 mg kg^–1 i.v. twice a week

T1 sequence (P02768 25-609): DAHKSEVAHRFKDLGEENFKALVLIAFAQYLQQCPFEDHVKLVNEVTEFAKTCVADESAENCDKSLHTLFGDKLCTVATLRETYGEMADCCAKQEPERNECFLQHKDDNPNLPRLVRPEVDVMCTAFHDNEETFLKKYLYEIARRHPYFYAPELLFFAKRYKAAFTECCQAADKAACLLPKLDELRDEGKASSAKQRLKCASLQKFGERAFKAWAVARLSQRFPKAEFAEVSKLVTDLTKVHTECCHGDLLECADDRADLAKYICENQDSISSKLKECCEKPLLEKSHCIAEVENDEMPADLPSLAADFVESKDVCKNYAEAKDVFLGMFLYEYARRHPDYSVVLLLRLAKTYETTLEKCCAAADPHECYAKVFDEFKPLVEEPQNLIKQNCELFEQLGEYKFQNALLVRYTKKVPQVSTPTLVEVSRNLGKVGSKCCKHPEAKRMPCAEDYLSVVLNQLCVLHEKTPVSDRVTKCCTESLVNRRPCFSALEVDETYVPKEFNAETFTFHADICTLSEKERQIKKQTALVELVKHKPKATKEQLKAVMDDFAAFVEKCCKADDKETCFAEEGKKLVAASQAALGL

Compound: C[O][Pt]([NH2])([NH2])([Cl])([Cl])[O]C(=O)NCCN1C(=O)C=CC1=O [Compound 7, (OC-6-44)-Diamminedichloridomethoxido[2-(2,5-dioxo-2,5-dihydro-1H-pyrrol-1-yl)ethylcarbamato]platinum(IV)]
- Albumin-binding half-life λ1/2 [1]: 5.1 h
- drug bound to the albumin fraction ([2]; 100 µM, first scan (∼5–10 min after incubation)): ~50%
- hydrolysis in aqueous solution ([3]; aqueous solution, 20°C): less than 1 % h^–1

Compound: CC(=O)[O][Pt]([NH2])([NH2])([Cl])([Cl])[O]C(=O)NCCN1C(=O)CCC1=O [Compound 10]
- reduction by ascorbic acid, cisplatin-derived vs oxaliplatin-based [4]: reduced much faster
- stability towards reduction, acetato vs methoxido ligand [4]: more stable
- protein binding ability ([2]; during 21 h): negligible protein binding ability
- changes in aqueous solution ([3]; over a period of 24 hours): no changes

Compound: O=C1[O][Pt]2([NH][C@@H]3CCCC[C@H]3[NH]2)[O]C1=O [oxaliplatin]
- apoptotic cell fraction in tumors (CT-26 tumors): highest
- adverse effects [5, 7]: very strong adverse effects
- anticancer activity [5, 7]: widely ineffective
- onset of activity ([5]; male BALB/c mice, i.v. twice a week, equimolar to 9 mg kg^–1 oxaliplatin): 8 days

Compound: N.N.[Cl][Pt][Cl] [cisplatin]
- Pt conc. in serum ([6]; Mouse #1, serum 24 h after single i.v. treatment): 48 µg/L
- Pt conc. in serum ([6]; Mouse #2, serum 24 h after single i.v. treatment): 46 µg/L
- Pt conc. in serum ([6]; Mouse #3, serum 24 h after single i.v. treatment): 43 µg/L
- Pt conc. in serum ([6]; Mouse #4, serum 24 h after single i.v. treatment): 44 µg/L
